The values that follow come from patent US8115014B2, “Ethynylindole compounds” (ONO Pharmaceuticals, Co., Ltd., priority 2008, dated 2012).

For one experiment, the target named is T1, human cysLT2 receptor (Homo sapiens, UniProt Q9NS75).
T1 construct: expressed in transfected cells; host or cells: HEK293 cells
T1 sequence (Q9NS75 1-346): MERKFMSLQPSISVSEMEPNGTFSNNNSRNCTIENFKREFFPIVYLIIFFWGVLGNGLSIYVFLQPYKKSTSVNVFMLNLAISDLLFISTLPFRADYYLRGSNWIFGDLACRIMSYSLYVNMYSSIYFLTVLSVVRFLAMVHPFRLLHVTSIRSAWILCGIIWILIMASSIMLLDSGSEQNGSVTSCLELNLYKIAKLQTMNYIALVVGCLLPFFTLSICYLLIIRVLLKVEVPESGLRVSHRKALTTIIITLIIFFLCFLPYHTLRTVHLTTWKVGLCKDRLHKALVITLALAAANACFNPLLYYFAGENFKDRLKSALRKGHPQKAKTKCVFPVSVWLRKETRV
The experiment is described as follows: Effects of compounds on LTD4-induced increases in intracellular calcium levels, HEK293 cells expressing the human cysLT2 receptor. It counts as cell-based. Conditions: 100 nM LTD4, compound applied 30 minutes prior, read-out: IC50 (50% inhibitory concentration), LTD4-induced intracellular calcium influx. How it is done:
(§1) The cells were incubated in the culture medium containing 7.5 μM Fura2-AM, 20 mM 2-[4-(2-hydroxyethyl)-1-piperazinyl]ethanesulfonic acid (HEPES) and 2.5 mM probenecid, at 37° C. for about 60 minutes. The Fura2-AM-loaded cells were washed once with assay buffer (Hank's buffer containing 20 mM HEPES), and the LTD4-induced intracellular calcium influx was measured using a FDSS2000 (manufactured by Hamamatsu Photonics K.K.). The compounds of the present invention were applied 30 minutes prior to LTD4 stimulation, and time-course changes of the response provoked by 100 nM of LTD4 was measured over 150 seconds.

Another experiment has as its target T2, human cysLT1 receptor (Homo sapiens, UniProt Q9Y271).
T2 construct: expressed in transfected cells; host or cells: Chinese hamster ovary (CHO) cells
T2 sequence (Q9Y271 1-337): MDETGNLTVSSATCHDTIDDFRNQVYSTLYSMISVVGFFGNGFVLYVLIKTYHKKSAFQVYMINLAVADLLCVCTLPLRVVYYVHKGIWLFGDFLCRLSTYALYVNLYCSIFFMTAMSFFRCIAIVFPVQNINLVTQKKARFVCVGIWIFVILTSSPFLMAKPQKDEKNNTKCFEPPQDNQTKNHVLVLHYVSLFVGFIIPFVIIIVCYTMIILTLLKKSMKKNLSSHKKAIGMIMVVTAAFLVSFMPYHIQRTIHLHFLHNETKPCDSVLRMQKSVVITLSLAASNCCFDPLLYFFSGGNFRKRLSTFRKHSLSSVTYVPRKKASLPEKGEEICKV
The experiment is described as follows: Effects of compounds on LTD4-induced increase in intracellular calcium levels, CHO cells expressing the human cysLT1 receptor. Conditions: 100 nM LTD4, compound applied 30 minutes prior, read-out: IC50 (50% inhibitory concentration), LTD4-induced intracellular calcium influx. The format is cell-based. As to the method: as §1, with “Chinese hamster ovary (CHO) cells expressing the human cysLT1 receptor were seeded at a density of 0.4×10^5 cells/well into a 96-well plate and cultured in an F-12 medium at 37° C. in the presence of 5% CO2 for 24 hours. The cells” for “The cells”

Consider `Cc1c(Cl)cccc1CCCCOc1ccc(C#Cc2cccc3c(CC4(CC(=O)O)CC4)c(C)n(CC(=O)O)c23)cc1` [Example 21 (1), (1-{[1-(carboxymethyl)-7-({4-[4-(3-chloro-2-methylphenyl)butoxy]phenyl}ethynyl)-2-methyl-1H-indol-3-yl]methyl}cyclopropyl)acetic Acid], for which the IC50 worked out at 2100 pM on human cysLT2 receptor and 160 pM on human cysLT1 receptor.

For `Cc1c(F)cccc1CCCCOc1ccc(C#Cc2cccc3c(CC4(CC(=O)O)CC4)c(C)n(CC(=O)O)c23)cc1` [Example 21 (2), [3-{[1-(carboxymethyl)cyclopropyl]methyl}-7-({4-[4-(3-fluoro-2-methylphenyl)butoxy]phenyl}ethynyl)-2-methyl-1H-indol-1-yl]acetic Acid], the IC50 on human cysLT2 receptor worked out at 2900 pM; on human cysLT1 receptor it was 240 pM.

Consider `Cc1c(CCCC(=O)O)c2cccc(C#Cc3ccc(OCCCCc4cc(F)c(F)c(F)c4F)cc3)c2n1CC(=O)O` [Example 11, 4-[1-(carboxymethyl)-2-methyl-7-({4-[4-(2,3,4,5-tetrafluorophenyl)butoxy]phenyl}ethynyl)-1H-indol-3-yl]butanoic Acid], for which the IC50 on human cysLT2 receptor was determined as 770 pM; at human cysLT1 receptor, 210 pM.

In the case of `Cc1c(CCCC(=O)O)c2cccc(C#Cc3ccc(OCCCCc4c(F)c(F)c(F)c(F)c4F)cc3)c2n1CCCC(=O)O` [Example 9, 4,4′-[2-methyl-7-({4-[4-(pentafluorophenyl)butoxy]phenyl}ethynyl)-1H-indole-1,3-diyl]dibutanoic Acid], the IC50 at human cysLT2 receptor turned out to be 2800 pM; on human cysLT1 receptor, 1100 pM.
